Assay results as given in patent US5393875A, “Amino acid derivatives having renin inhibiting activity” (Hoffmann-La Roche Inc., priority 1991, dated 1995).

Legend:
[1] = target: T1, renin in human plasma (Homo sapiens, UniProt P00797); assay: Test B: in vitro test with human plasma; format: biochemical; settings: pH 6, 3 hours at 37° C., angiotensin I by RIA
T1 construct: The test solution comprises (1) 225 μl of plasma; from tissue; host or cells: human plasma
T1 sequence (P00797 67-406): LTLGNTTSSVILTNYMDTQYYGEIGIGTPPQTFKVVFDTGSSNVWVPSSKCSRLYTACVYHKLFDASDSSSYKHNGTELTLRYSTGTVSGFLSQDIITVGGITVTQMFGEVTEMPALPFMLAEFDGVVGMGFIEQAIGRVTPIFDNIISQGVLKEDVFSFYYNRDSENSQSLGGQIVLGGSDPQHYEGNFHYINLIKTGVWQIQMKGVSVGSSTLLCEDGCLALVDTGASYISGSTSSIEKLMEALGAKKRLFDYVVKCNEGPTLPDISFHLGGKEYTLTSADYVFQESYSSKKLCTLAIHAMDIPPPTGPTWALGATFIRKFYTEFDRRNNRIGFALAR
Experimental: B. In vitro test with human plasma
The test solution comprises (1) 225 μl of plasma, (2) 10 μl of 8-hydroxyquinoline sulphate in water, (3) 12 μl of sodium phosphate buffer (0.1M), pH 7.4, and […] of different concentrations of renin inhibitor in dimethyl sulphoxide. Tho resulting pH value (pH 6) of tho test solution is stable for the duration of the subsequent incubation. The test tubes are then incubated at 37° C. for 3 hours. The enzyme activity is expressed by determining the angiotensin I produced, which is determined using a comercially available radioimmunoassay kit (Clinical Assays, Cambridge, Mass.).
(§1) The following controls are carried out:
MaxP: Maximal production (maximal enzyme activity) in the absence of a renin inhibitor.
MinP: Minimal production (enzyme activity blank) in the presence of a supramaximal concentration of a renin inhibitor.
The MinP is subtracted from the respective angiotensin production in each experiment. These values are converted into percentage inhibition by comparison with the maximal enzyme activity MaxP-MinP. The degree of inhibition is expressed by the IC50 value, i.e. the concentration of inhibitor which reduces the accumulation of angiotensin I by 50%.

[2] = target: T2, human renin (Homo sapiens, UniProt P00797); assay: Test A: in vitro test with pure human renin; format: biochemical; settings: human tetradecapeptide substrate, pH 7.4, 3 hours at 37° C., angiotensin I by RIA
T2 sequence (P00797 67-406): T1 sequence (P00797 67-406)
Experimental: A. In vitro test with pure human renin
The test is carried out in Eppendorf test tubes. The incubation mixture consists of (1) 100 μl of human renin in buffer A (0.1M sodium phosphate solution, pH 7.4, containing 0.1% bovine serum albumin, 0.1% sodium azide and 1 mM ethylenediaminetetraacetic acid), sufficient for a renin activity of 2-3 ng of angiotensin I/ml/hr; (2) 145 μl of buffer A: (3) 30 μl of 10 μM human tetradecapeptide renin substrate (hTD) in 10 mM hydrochloric acid: (4) 15 μl of dimethyl sulphoxide with or without inhibitor and (5) 10 μl of a 0.03 molar solution of hydroxyquinoline sulphate in water.
The samples are incubated for three hours at 37° C. and, respectively, 4° C. in triplicate. 2×100 μl samples per experimental test tube are used in order to measure the production of angiotensin I via RIA (standard radioimmunoassay; clinical assay solid phase kit). Cross reactivities of the antibody used in the RIA are: angiotensin I 100%; angiotensin II 0.0013%; hTD (angiotensin I-Val-Ile-His-Ser-OH 0.09%. The production of angiotensin I is determined by the difference between the experiment at 37° C. and that at 4° C.
as §1
(a) Incubation of hTD samples without renin and without inhibitor at 37° C. and 4° C. The difference between these two values gives the base value of the angiotensin I production.
(b) Incubation of hTD samples with renin, but without inhibitor at 37° C. and 4° C. The difference between these values gives the maximal value of angiotensin I production.
In each sample the base value of the angiotensin I production is subtracted from the angiotensin I production which is determined. The difference between the maximal value and the base value gives the value of the maximal substrate hydrolysis (=100% ) by renin.
The results are given as IC50 values which denote that concentration of the inhibitor at which the enzymatic activity is inhibited by 50%. The IC50 values are determined from a linear regression curve from a logit-log plot.

| Compound | IC50 [1] | IC50 [2] |
| --- | --- | --- |
| CC(C)(C(=O)N[C@H]1C(O)O[C@H](CO)[C@@H](O)[C@@H]1O)S(=O)(=O)C[C@@H](Cc1ccccc1)C(=O)N[C@@H](Cc1c[nH]cn1)C(=O)N[C@@H](CC1CCCCC1)[C@@H](O)[C@@H](O)C1CC1 (stereo partly drawn) [B, 2-[2-[[(S)-2-[[(S)-1-[[(1S,2R,3S)-1-(Cyclohexylmethyl)-3-cyclopropyl-2,3-dihydroxypropyl]carbamoyl]-2-imidazol-4-ylethyl]carbamoyl]-3-phenylpropyl]sulfonyl]-2-methylpropionamido]-2-deoxy-D-glucopyranose] | 0.11 nM | 0.3 nM |
| COCC(=O)OCC(C)(C)S(=O)(=O)CC(Cc1ccccc1)C(=O)N[C@@H](Cc1c[nH]cn1)C(=O)N[C@@H](CC1CCCCC1)[C@@H](O)[C@@H](O)C1CC1 (single isomer, unassigned) [D, 2-[[(S or R)-2-[[(S)-1-[[(1S,2R,3S)-1-(cyclohexylmethyl)-3-cyclopropyl-2,3-dihydroxypropyl]carbamoyl]-2-imidazol-4-ylethyl]carbamoyl]-3-phenylpropyl]sulfonyl]-2-methylpropyl methoxyacetate] | < 0.1 nM | 0.2 nM |
| CC(C)(C(=O)N1CCOCC1)S(=O)(=O)C[C@@H](Cc1ccccc1)C(=O)N[C@@H](Cc1c[nH]cn1)C(=O)N[C@@H](CC1CCCCC1)[C@@H](O)[C@@H](O)C1CC1 [A, (S)-N-[(1S,2R,3S)-1-(Cyclohexylmethyl)-3-cyclopropyl-2,3-dihydroxypropyl]-α-[(S)-α-[[[1-(morpholinocarbonyl)-1-methylethyl]sulfonyl]methyl]hydrocinnamamido]imadazole-4-propionamide] | 0.1 nM | 0.03 nM |
| COC(=O)[C@H](NC(=O)OC(C)(C)C)C(C)(C)S(=O)(=O)CC(Cc1ccccc1)C(=O)N[C@@H](Cc1c[nH]cn1)C(=O)N[C@@H](CC1CCCCC1)[C@@H](O)[C@@H](O)C1CC1 (single isomer, unassigned) [C, tert-Butyl [(S)-2-[[(S or R)-2-[[(S)-1-[[(1S,2R,3S)-1-(cyclohexylmethyl)-3-cyclopropyl-2,3-dihydroxypropyl]carbamoyl]-2-imidazol-4-ylethyl]carbamoyl]-3-phenylpropyl]sulfonyl]-1-(methoxycarbonyl)-2-methylpropyl]carbamate] | 0.14 nM | 0.061 nM |
